Data reported in patent US20240409886A1, “CULTURE MEDIUM COMPRISING DIPEPTIDES” (Evonik Operations GmbH, priority 2017, published 2024).
Residues, ends and D or L forms follow the SMILES beside them.

Assays:
[1] = system: antibody-producing Chinese Hamster Ovary (CHO) cell (subclone DG44)
Protocol: The analysis was based on a comparison of the viable cell density and cell viability in a series of cell cultures, which were conducted at substantially identical culturing conditions, however, with increasing amounts of the Gln-Asn dipeptide in the medium. In order to keep the total amounts of Asn and Gln units (molar basis) in the various culture media constant, the molar concentration of free glutamine and free asparagine was reduced in accordance with the molar amount of the dipeptide added. A series of culture media having increasing amounts of the Gln-Asn dipeptide was prepared by mixing varying amounts of a Base Medium (comprising free Asn and Gln) and a Test Medium (comprising Asn-Gln dipeptide). A commercially available defined cell culture medium (TC-42, TeutoCell AG, Bielefeld, Germany) served as the Base Medium. […] Furthermore, the free Gln concentration in the Test Medium was set to a value such that the total concentration of Gln units in the Test Medium (i.e., free Gln and dipeptide-Gln) matched the concentration of free Gln in the Base Medium. All other nutrient concentrations in the Test Medium were the same as in the Base Medium. […]

[2] = system: antibody-producing Chinese Hamster Ovary (CHO) cell (subclone DG44); experiment: viable cell density in CHO cell culture with increasing Gln-Asn dipeptide (OFAT); type: cell-based
Protocol: The effect of the Gln-Asn dipeptide on an antibody-producing Chinese Hamster Ovary (CHO) cell (subclone DG44; Life Technologies Corporation, Carlsbad, USA) was investigated using one-factor-at-a-time (OFAT) analysis.
The analysis was based on a comparison of the viable cell density and cell viability in a series of cell cultures, which were conducted at substantially identical culturing conditions, however, with increasing amounts of the Gln-Asn dipeptide in the medium. In order to keep the total amounts of Asn and Gln units (molar basis) in the various culture media constant, the molar concentration of free glutamine and free asparagine was reduced in accordance with the molar amount of the dipeptide added. A series of culture media having increasing amounts of the Gln-Asn dipeptide was prepared by mixing varying amounts of a Base Medium (comprising free Asn and Gln) and a Test Medium (comprising Asn-Gln dipeptide). A commercially available defined cell culture medium (TC-42, TeutoCell AG, Bielefeld, Germany) served as the Base Medium. (Any other suitable cell culture medium could be used.) A Test Medium (TC-42-EVO) was prepared so as to have identical nutrient concentrations compared to the Base Medium, however, instead of free Asn the Test Medium contained an equimolar amount (5.4 mM) of Gin-Asn dipeptide. Furthermore, the free Gln concentration in the Test Medium was set to a value such that the total concentration of Gln units in the Test Medium (i.e., free Gln and dipeptide-Gln) matched the concentration of free Gln in the Base Medium. All other nutrient concentrations in the Test Medium were the same as in the Base Medium. The Base Medium contained 1461.5 mg/l free Gln and 612 mg/l free Asn.
Six cell cultivations were then conducted with media containing varying amounts of the Test Medium and the Base Medium in the following proportions:
All media were set to pH 8.3. Salinity of the culture media was set to 285 mOsmol/kg with NaCl. All cultivations were conducted in on a rotary shaker under identical culture conditions (temperature, humidity, rpm, CO2, etc.), using standard cell culture methods. Three passages of a cell culture are conducted and viable cell density (VCD; 10^6 viable cells/ml) and cell viability (%) was followed in duplicate determinations, using […] determination.
A correlation of the maximum viable cell density (third passage) with the concentration of the dipeptide is observed. The greatest maximum viable cell density is obtained in cultivation #1, i.e., in the cultivation in which all Asn is provided in the form of the Asn-containing dipeptide. The lowest maximum viable cell density is obtained in cultivation #6, i.e., in the cultivation in which all of the Asn in provided as free amino acid. Furthermore, it can be seen that the increased viable cell density is maintained over an extended period of time (day 13 through day 18).

SMILES: NC(=O)CC[C@H](N)C(=O)N[C@@H](CC(N)=O)C(=O)O [Gln-Asn, L-glutaminyl-L-asparagine] (H-Gln-Asn-OH)
- cell viability at day 18 ([1]; high concentrations of the dipeptide (cultivations #1, #2, #3)): relatively high viability
- cell viability at the end of experiment ([1]; lower concentration of the dipeptide (cultivations #4, #5)): significantly reduced cell viability
- viable cell density ([2]; 0.3 mM dipeptide (#5), time 0): 0.285 10^6 cells/ml
- viable cell density ([2]; 0.3 mM dipeptide (#5), time 0.89): 0.485 10^6 cells/ml
- viable cell density ([2]; 0.3 mM dipeptide (#5), time 3.08): 1.985 10^6 cells/ml
- viable cell density ([2]; 0.3 mM dipeptide (#5), time 3.71): 3.325 10^6 cells/ml
- viable cell density ([2]; 0.3 mM dipeptide (#5), time 4.08): 0.265 10^6 cells/ml
- viable cell density ([2]; 0.3 mM dipeptide (#5), time 4.70): 1.12 10^6 cells/ml
- viable cell density ([2]; 0.3 mM dipeptide (#5), time 5.69): 1.555 10^6 cells/ml
- viable cell density ([2]; 0.3 mM dipeptide (#5), time 6.88): 3.8 10^6 cells/ml
- viable cell density ([2]; 0.3 mM dipeptide (#5), time 7.04): 0.31 10^6 cells/ml
- viable cell density ([2]; 0.3 mM dipeptide (#5), time 7.80): 1.17 10^6 cells/ml
- viable cell density ([2]; 0.3 mM dipeptide (#5), time 8.78): 2.01 10^6 cells/ml
- viable cell density ([2]; 0.3 mM dipeptide (#5), time 9.82): 3.9 10^6 cells/ml
- viable cell density ([2]; 0.3 mM dipeptide (#5), time 10.99): 6.065 10^6 cells/ml
- viable cell density ([2]; 0.3 mM dipeptide (#5), time 12.02): 8.21 10^6 cells/ml
- viable cell density ([2]; 0.3 mM dipeptide (#5), time 12.75): 7.135 10^6 cells/ml
- viable cell density ([2]; 0.3 mM dipeptide (#5), time 13.89): 5.13 10^6 cells/ml
- viable cell density ([2]; 0.3 mM dipeptide (#5), time 14.74): 5.54 10^6 cells/ml
- viable cell density ([2]; 0.3 mM dipeptide (#5), time 15.79): 4.075 10^6 cells/ml
- viable cell density ([2]; 0.3 mM dipeptide (#5), time 16.89): 2.775 10^6 cells/ml
- viable cell density ([2]; 0.3 mM dipeptide (#5), time 18.06): 1.825 10^6 cells/ml
- viable cell density ([2]; 0.8 mM dipeptide (#4), time 0): 0.27 10^6 cells/ml
- viable cell density ([2]; 0.8 mM dipeptide (#4), time 0.89): 0.565 10^6 cells/ml
- viable cell density ([2]; 0.8 mM dipeptide (#4), time 3.08): 2.285 10^6 cells/ml
- viable cell density ([2]; 0.8 mM dipeptide (#4), time 3.71): 3.4 10^6 cells/ml
- viable cell density ([2]; 0.8 mM dipeptide (#4), time 4.08): 0.365 10^6 cells/ml
- viable cell density ([2]; 0.8 mM dipeptide (#4), time 4.70): 0.665 10^6 cells/ml
- viable cell density ([2]; 0.8 mM dipeptide (#4), time 5.69): 1.545 10^6 cells/ml
- viable cell density ([2]; 0.8 mM dipeptide (#4), time 6.88): 3.36 10^6 cells/ml
- viable cell density ([2]; 0.8 mM dipeptide (#4), time 7.04): 0.32 10^6 cells/ml
- viable cell density ([2]; 0.8 mM dipeptide (#4), time 7.80): 1.12 10^6 cells/ml
- viable cell density ([2]; 0.8 mM dipeptide (#4), time 8.78): 1.86 10^6 cells/ml
- viable cell density ([2]; 0.8 mM dipeptide (#4), time 9.82): 3.6 10^6 cells/ml
- viable cell density ([2]; 0.8 mM dipeptide (#4), time 10.99): 6.31 10^6 cells/ml
- viable cell density ([2]; 0.8 mM dipeptide (#4), time 12.02): 7.805 10^6 cells/ml
- viable cell density ([2]; 0.8 mM dipeptide (#4), time 12.75): 7.545 10^6 cells/ml
- viable cell density ([2]; 0.8 mM dipeptide (#4), time 13.89): 5.86 10^6 cells/ml
- viable cell density ([2]; 0.8 mM dipeptide (#4), time 14.74): 5.26 10^6 cells/ml
- viable cell density ([2]; 0.8 mM dipeptide (#4), time 15.79): 4.065 10^6 cells/ml
- viable cell density ([2]; 0.8 mM dipeptide (#4), time 16.89): 3.175 10^6 cells/ml
- viable cell density ([2]; 0.8 mM dipeptide (#4), time 18.06): 2.3 10^6 cells/ml
- viable cell density ([2]; 1.4 mM dipeptide (#3), time 0): 0.265 10^6 cells/ml
- viable cell density ([2]; 1.4 mM dipeptide (#3), time 0.89): 0.495 10^6 cells/ml
- viable cell density ([2]; 1.4 mM dipeptide (#3), time 3.08): 1.8 10^6 cells/ml
- viable cell density ([2]; 1.4 mM dipeptide (#3), time 3.71): 2.415 10^6 cells/ml
- viable cell density ([2]; 1.4 mM dipeptide (#3), time 4.08): 0.315 10^6 cells/ml
- viable cell density ([2]; 1.4 mM dipeptide (#3), time 4.70): 0.65 10^6 cells/ml
- viable cell density ([2]; 1.4 mM dipeptide (#3), time 5.69): 1.47 10^6 cells/ml
- viable cell density ([2]; 1.4 mM dipeptide (#3), time 6.88): 3.365 10^6 cells/ml
- viable cell density ([2]; 1.4 mM dipeptide (#3), time 7.04): 0.33 10^6 cells/ml
- viable cell density ([2]; 1.4 mM dipeptide (#3), time 7.80): 0.77 10^6 cells/ml
- viable cell density ([2]; 1.4 mM dipeptide (#3), time 8.78): 1.615 10^6 cells/ml
- viable cell density ([2]; 1.4 mM dipeptide (#3), time 9.82): 2.97 10^6 cells/ml
- viable cell density ([2]; 1.4 mM dipeptide (#3), time 10.99): 5.25 10^6 cells/ml
- viable cell density ([2]; 1.4 mM dipeptide (#3), time 12.02): 8.29 10^6 cells/ml
- viable cell density ([2]; 1.4 mM dipeptide (#3), time 12.75): 9.23 10^6 cells/ml
- viable cell density ([2]; 1.4 mM dipeptide (#3), time 13.89): 8.975 10^6 cells/ml
- viable cell density ([2]; 1.4 mM dipeptide (#3), time 14.74): 9.58 10^6 cells/ml
- viable cell density ([2]; 1.4 mM dipeptide (#3), time 15.79): 9.535 10^6 cells/ml
- viable cell density ([2]; 1.4 mM dipeptide (#3), time 16.89): 7.395 10^6 cells/ml
- viable cell density ([2]; 1.4 mM dipeptide (#3), time 18.06): 5.985 10^6 cells/ml
- viable cell density ([2]; 4.3 mM dipeptide (#2), time 0): 0.27 10^6 cells/ml
- viable cell density ([2]; 4.3 mM dipeptide (#2), time 0.89): 0.51 10^6 cells/ml
- viable cell density ([2]; 4.3 mM dipeptide (#2), time 3.08): 1.615 10^6 cells/ml
- viable cell density ([2]; 4.3 mM dipeptide (#2), time 3.71): 2.13 10^6 cells/ml
- viable cell density ([2]; 4.3 mM dipeptide (#2), time 4.08): 0.3 10^6 cells/ml
- viable cell density ([2]; 4.3 mM dipeptide (#2), time 4.70): 0.54 10^6 cells/ml
- viable cell density ([2]; 4.3 mM dipeptide (#2), time 5.69): 1.545 10^6 cells/ml
- viable cell density ([2]; 4.3 mM dipeptide (#2), time 6.88): 3.555 10^6 cells/ml
- viable cell density ([2]; 4.3 mM dipeptide (#2), time 7.04): 0.305 10^6 cells/ml
- viable cell density ([2]; 4.3 mM dipeptide (#2), time 7.80): 1.045 10^6 cells/ml
- viable cell density ([2]; 4.3 mM dipeptide (#2), time 8.78): 1.545 10^6 cells/ml
- viable cell density ([2]; 4.3 mM dipeptide (#2), time 9.82): 2.8 10^6 cells/ml
- viable cell density ([2]; 4.3 mM dipeptide (#2), time 10.99): 5.115 10^6 cells/ml
- viable cell density ([2]; 4.3 mM dipeptide (#2), time 12.02): 7.215 10^6 cells/ml
- viable cell density ([2]; 4.3 mM dipeptide (#2), time 12.75): 9.42 10^6 cells/ml
- viable cell density ([2]; 4.3 mM dipeptide (#2), time 13.89): 9.645 10^6 cells/ml
- viable cell density ([2]; 4.3 mM dipeptide (#2), time 14.74): 9.985 10^6 cells/ml
- viable cell density ([2]; 4.3 mM dipeptide (#2), time 15.79): 11.08 10^6 cells/ml
- viable cell density ([2]; 4.3 mM dipeptide (#2), time 16.89): 9.195 10^6 cells/ml
- viable cell density ([2]; 4.3 mM dipeptide (#2), time 18.06): 8.905 10^6 cells/ml
- viable cell density ([2]; 5.4 mM dipeptide (#1), time 0): 0.28 10^6 cells/ml
- viable cell density ([2]; 5.4 mM dipeptide (#1), time 0.89): 0.59 10^6 cells/ml
- viable cell density ([2]; 5.4 mM dipeptide (#1), time 3.08): 1.38 10^6 cells/ml
- viable cell density ([2]; 5.4 mM dipeptide (#1), time 3.71): 1.64 10^6 cells/ml
- viable cell density ([2]; 5.4 mM dipeptide (#1), time 4.08): 0.365 10^6 cells/ml
- viable cell density ([2]; 5.4 mM dipeptide (#1), time 4.70): 0.56 10^6 cells/ml
- viable cell density ([2]; 5.4 mM dipeptide (#1), time 5.69): 1.33 10^6 cells/ml
- viable cell density ([2]; 5.4 mM dipeptide (#1), time 6.88): 3.16 10^6 cells/ml
- viable cell density ([2]; 5.4 mM dipeptide (#1), time 7.04): 0.335 10^6 cells/ml
- viable cell density ([2]; 5.4 mM dipeptide (#1), time 7.80): 0.665 10^6 cells/ml
- viable cell density ([2]; 5.4 mM dipeptide (#1), time 8.78): 1.26 10^6 cells/ml
- viable cell density ([2]; 5.4 mM dipeptide (#1), time 9.82): 2.67 10^6 cells/ml
- viable cell density ([2]; 5.4 mM dipeptide (#1), time 10.99): 3.57 10^6 cells/ml
- viable cell density ([2]; 5.4 mM dipeptide (#1), time 12.02): 4.91 10^6 cells/ml
- viable cell density ([2]; 5.4 mM dipeptide (#1), time 12.75): 6.415 10^6 cells/ml
- viable cell density ([2]; 5.4 mM dipeptide (#1), time 13.89): 8.285 10^6 cells/ml
- viable cell density ([2]; 5.4 mM dipeptide (#1), time 14.74): 11.695 10^6 cells/ml
- viable cell density ([2]; 5.4 mM dipeptide (#1), time 15.79): 10.075 10^6 cells/ml
- viable cell density ([2]; 5.4 mM dipeptide (#1), time 16.89): 7.995 10^6 cells/ml
- viable cell density ([2]; 5.4 mM dipeptide (#1), time 18.06): 6.6 10^6 cells/ml
- maximum viable cell density (third passage) ([2]; cultivation #1, all Asn provided in the form of the dipeptide (5.4 mM), compared among cultivations #1-6): greatest
